Reference: US20070292489A1, “METHOD FOR TREATMENT OF WOUND TREATMENT USING AGANOCIDES” (priority 2006, published 2007)

Tested on: human secondary intention wound
Assay: Vacuum-assisted wound treatment combined with intermittent aganocide instillation
Type: in vivo
Settings: pH about 4, 0.9% NaCl, 2-hour pumping at 125 mm Hg
Description: A human secondary intention wound approximately 3-4 cm in diameter is fitted with a polyurethane sponge, pore size 400-600 microns cut to the size of the wound and twice the thickness of the wound and covered with an adhesive film, per instructions on the vacuum system. The outlet is connected to an IV bag (500 ml) with a 0.1% sodium 2-dichloroamino-2-methylpropanesulfonate solution adjusted with HCl to a pH of about 4, 0.9% NaCl and elevated to between 0.1 and 1 meter above the wound. A 1-cm hole is punctured in the adhesive film, and a second adhesive film is used to cover the hole, with the second outlet connected to the vacuum pump.
Each cycle consists of three phases: a 2-hour pumping phase when the vacuum (125 mm Hg negative pressure) is connected and the IV bag is disconnected; a 1 second instilling phase when the vacuum is disconnected and the IV bag is connected and the aganoocide is applied to the wound; and a 1 minute holding phase when both vacuum and the IV bag are disconnected.
Each treatment has about 24 cycles and starts with a pumping phase and proceeds for 48 hours. When the treatment is completed, the dressings are changed and the treatment is repeated until full granulation has been promoted and the granulation tissue is within the level of the skin, approximately 30 to 100 days, depending on the depth of the original wound. […]

CC(C)(CS(=O)(=O)[O-])N(Cl)Cl.[Na+] [Sodium 2-dichloroamino-2-methylpropanesulfonate]
wound healing results of the combination treatment regimen compared with vacuum-assisted wound healing without aganocide or aganocide alone (Example 1: 0.1% solution, 1 second instilling, 1 minute holding, about 24 cycles per 48 hours): superior wound healing results | wound healing results of the combination treatment regimen compared with vacuum-assisted wound healing without aganocide or aganocide alone (Example 2: 0.1% solution, 5 second instilling, 30 minute holding, about 19 cycles per 48 hours): superior wound healing results
